Holding throughout (type): functional
One assay has as its system MCF7. Briefly: Growth inhibition of human MCF7 cells at 10^-5 M incubated for 48 hrs by sulforhodamine B assay relative to control. The conditions noted are these: MCF7, 48 h, read-out: GI. (In general: In SRB staining, fixed cells bind dye roughly in proportion to their protein.)
The next assay deals with MDA-MB-468. Kind of assay: Growth inhibition of human MDA-MB-468 cells at 10^-5 M incubated for 48 hrs by sulforhodamine B assay relative to control. The conditions noted are these: MDA-MB-468, 48 h, read-out: GI.
For the next assay, the system named is T47D. Kind of assay: Growth inhibition of human T47D cells at 10^-5 M incubated for 48 hrs by sulforhodamine B assay relative to control. The conditions noted are these: read-out: GI.

Regarding `O=C1/C(=C\c2cccn2Cc2ccccc2)c2ccccc2N1c1c(Cl)cccc1Cl`, the inhibition of growth at 10 µM with MCF7 amounted to 93%; in the assay on MDA-MB-468, 100%; with T47D it was 100%.

(Values after ChEMBL document CHEMBL4308864, “Targeting tyrosine kinase: Development of acridone - pyrrole - oxindole hybrids against human breast cancer” (2019).)
